Patent US9199983B2, “3-aryl-6-aryl-[1,2,4]triazolo[4,3-α]pyridines as inhibitors of cell proliferation and the use thereof” (priority 2010, dated 2015)

How the values were obtained:
[1] = system: breast cancer cell line T47D; assay: MTT cancer cell cytotoxicity assay, T47D; format: cell-based, human; settings: Homo sapiens, T47D cells, 48-72 h
Description: (§1) Identification of 3-(2-methoxyphenyl)-6-(4-methoxyphenyl)-[1,2,4]triazolo[4,3-a]pyridine and analogs as inhibitors of cell proliferation that were evaluated with standard MTT cancer cell cytotoxicity assay (IC50)
(§2) Human lung cancer cell line A549, breast cancer cell line T47D, liver cancer cell lines HepG2 and SMMC7721 as well as a mouse melanoma cell line B16F10 were used in the study. The cells were cultured in corresponding growth media recommended by American Type Culture Collection (ATCC) with the supplementation of penicillin G (100 U/ml)/streptomycin (100 µg/ml), and 10% fetal bovine serum (Hangzhou Sijiqing Biological Engineering Materials, Co., Ltd. China) at 37° C. in a humidified atmosphere containing 5% CO2. Cells at about 80% confluency were harvested by trypsinization. Cells were centrifuged, re-suspended in fresh growth media and counted. Corresponding numbers of cells were seeded to 96-well cell culture plates (HepG2 cell, T-47D and A549 cells at 3000 cells/well, SMMC-7721 cells at 5000 cells/well and B16F10 cells at 2000 cells/well) in a total volume of […]. Cells were incubated in CO2 incubator over night to allow the cells to attach. In next day, […] of medium containing testing (from 10 μM to 1 nM) or reference compounds was added to each well of the cells. Media without compound were used as 100% control. Cells were treated with each concentration of compounds in triplicates to ensure data accuracy. Cells were incubated with compounds in CO2 incubator for an additional 48-72 h at 37° C. After incubation, cells were removed from the CO2 incubator and […] of 5 mg/ml MTT (3-(4,5-dimethylthiazole-2-yl)-2,5-diphenyltetrazoliumbromide, Sigma) solution in PBS was added to each well. Cells were returned to CO2 incubator and incubated for additional 4 h. After the incubation, media were removed by aspiration and […] DMSO was added to each well. Plates were sealed with aluminum foil and shaked mildly on an orbital shaker for 10 min at room temperature. The absorption was measured at 550 nm with a plate reader (Varioskan Flash, Thermo Fisher Scientific) with 660 nm reading used as background control. The relative absorbance readings were calculated by subtracting readings at 660 nm from that at 550 nm. The relative absorbance was plotted again the concentrations of the testing compounds and the plots were fitted with a one-site lg(IC50) equation using Prism 5 software (GraphPad Software, Inc). The equation used in the curve fitting is as follows: relative absorbance reading=background reading+(maximal reading−brackground reading)/(1+10 ^(compound concentration-log IC50)). The background reading used in the calculation was obtained with 100% cell death using a reference anticancer drug, whereas the maximal reading was obtained in the well with no added compound. The IC50 value calculated from the equation represents the cytotoxic potency of a particular compound.

[2] = system: Human lung cancer cell line A549; assay: MTT cancer cell cytotoxicity assay, A549; format: cell-based; settings: Homo sapiens, A549 cells, 48-72 h
Description: as §1, §2

[3] = system: liver cancer cell line SMMC7721; assay: MTT cancer cell cytotoxicity assay, SMMC7721; format: cell-based, human; settings: Homo sapiens, SMMC-7721, SMMC7721 cells, 48-72 h
Description: as §1, §2

[4] = system: liver cancer cell line HepG2; assay: MTT cancer cell cytotoxicity assay, HepG2; format: cell-based, human; settings: Homo sapiens, HepG2 cells, 48-72 h
Description: as §1, §2

Row | Compound | IC50 [1] [nM] | IC50 [2] [nM] | IC50 [3] [nM] | IC50 [4] [nM]
1 | COc1cc(-c2ccc3nnc(-c4ccccc4OC)n3c2)ccc1N [Example 43, 6-(4-Amino-3-methoxyphenyl)-3-(2-methoxyphenyl)-[1,2,4]triazolo[4,3-a]pyridine] | 2250 | > 10000 | 2200 | 1640
2 | COc1ccccc1-c1nnc2ccc(-c3cccc(O)c3)cn12 [Example 12, 6-(3-Hydroxyphenyl)-3-(2-methoxyphenyl)-[1,2,4]triazolo[4,3-a]pyridine] | > 10000 | 7180 | > 10000 | 2950
3 | COc1cc(-c2ccc3nnc(-c4ccccc4OC)n3c2)ccc1C [Example 28, 6-(3-Methoxy-4-methylphenyl)-3-(2-methoxyphenyl)-[1,2,4]triazolo[4,3-a]pyridine] | 495 | 886 | 178 | 448
4 | CNc1ccccc1-c1nnc2ccc(-c3ccc(OC)cc3)cn12 [Example 79, 6-(4-Methoxyphenyl)-3-(2-methylaminophenyl)-[1,2,4]triazolo[4,3-a]pyridine] | 73 | 167 | 69 | 122
5 | COc1ccc(-c2ccc3nnc(-c4cccnc4OC)n3c2)cc1 [Example 86, 6-(4-Methoxyphenyl)-3-(2-methoxypyridin-3-yl)-[1,2,4]triazolo[4,3-a]pyridine] | 40 | 41 | 32 | 58
6 | COc1ccc(-c2ccc3nnc(-c4c(OC)ccc(Br)c4OC)n3c2)cc1 [Example 65, 3-(3-Bromo-2,6-dimethoxyphenyl)-6-(4-methoxyphenyl)-[1,2,4]triazolo[4,3-a]pyridine] | 569 | 2460 | 199 | 944
7 | COc1ccc(-c2ccc3nnc(-c4ccc(OC)c(OC)c4OC)n3c2)cc1 [Example 72, 6-(4-Methoxyphenyl)-3-(2,3,4-trimethoxyphenyl)-[1,2,4]triazolo[4,3-a]pyridine] | 8160 | > 10000 | 4140 | > 10000
8 | COc1ccc([N+](=O)[O-])cc1-c1nnc2ccc(-c3ccc(OC)c([N+](=O)[O-])c3)cn12 [Example 42, 6-(4-Methoxy-3-nitrophenyl)-3-(2-methoxy-5-nitrophenyl)-[1,2,4]triazolo[4,3-a]pyridine] | 279 | 489 | 230 | 312
9 | COc1ccc(-c2ccc3nnc(-c4c(F)cccc4OC)n3c2)cc1 [Example 63, 3-(6-Fluoro-2-methoxyphenyl)-6-(4-methoxyphenyl)-[1,2,4]triazolo[4,3-a]pyridine] | 149 | 174 | 36 | 236
10 | COc1ccc(-c2ccc3nnc(-c4ccccc4)n3c2)cc1 [Example 68, 6-(4-Methoxyphenyl)-3-phenyl-[1,2,4]triazolo[4,3-a]pyridine] | 2940 | 7750 | 755 | 5030
11 | COc1ccc(-c2ccc3nnc(-c4cccc(OC)c4OC)n3c2)cc1 [Example 73, 3-(2,3-Dimethoxyphenyl)-6-(4-methoxyphenyl)-[1,2,4]triazolo[4,3-a]pyridine] | 5320 | > 10000 | 3210 | 2350
12 | COc1ccc(-c2ccc3nnc(-c4ccccc4OC)n3c2)c(C)c1 [Example 8, 6-(4-Methoxy-2-methylphenyl)-3-(2-methoxyphenyl)-[1,2,4]triazolo[4,3-a]pyridine] | 103 | 91 | 24 | 55
13 | COc1ccc(-c2ccc3nnc(-c4c(OC)cccc4OC)n3c2)cc1 [Example 61, 3-(2,6-Dimethoxyphenyl)-6-(4-methoxyphenyl)-[1,2,4]triazolo[4,3-a]pyridine] | 2920 | 2560 | 258 | 949
14 | COc1ccc(-c2cn3c(-c4ccccc4OC)nnc3cc2C)cc1 [Example 54, 3-(2-Methoxyphenyl)-6-(4-methoxyphenyl)-7-methyl-[1,2,4]triazolo[4,3-a]pyridine] | 151 | 428 | 94 | 134
15 | COc1ccc(-c2ccc3nnc(-c4ccccc4OC)n3c2)c(OC)c1 [Example 36, 6-(2,4-Dimethoxyphenyl)-3-(2-methoxyphenyl)-[1,2,4]triazolo[4,3-a]pyridine] | 315 | 74 | 29 | 78
16 | COc1ccc(-c2ccc3nnc(-c4cc(C)ccc4OC)n3c2)cc1 [Example 76, 3-(2-Methoxy-5-methylphenyl)-6-(4-methoxyphenyl)-[1,2,4]triazolo[4,3-a]pyridine] | 633 | 533 | 104 | 283
17 | COc1ccccc1-c1nnc2ccc(-c3ccc(C)c([N+](=O)[O-])c3)cn12 [Example 10, 3-(2-Methoxyphenyl)-6-(4-methyl-3-nitrophenyl)-[1,2,4]triazolo[4,3-a]pyridine] | 1370 | > 10000 | 618 | 382
18 | COc1ccc(-c2ccc3nnc(-c4ccccc4OC)n3c2)cc1OC [Example 31, 6-(3,4-Dimethoxyphenyl)-3-(2-methoxyphenyl)-[1,2,4]triazolo[4,3-a]pyridine] | 765 | 241 | 492 | 474
19 | COc1ccccc1-c1nnc2ccc(-c3ccc(C)cc3F)cn12 [Example 4, 6-(2-Fluoro-4-methylphenyl)-3-(2-methoxyphenyl)-[1,2,4]triazolo[4,3-a]pyridine] | 326 | 276 | 80 | 246
20 | COc1cc(-c2ccc3nnc(-c4ccccc4OC)n3c2)ccc1OCc1ccccc1 [Example 9, 6-(4-Benzyloxy-3-methoxyphenyl)-3-(2-methoxyphenyl)-[1,2,4]triazolo[4,3-a]pyridine] | > 10000 | > 10000 | > 10000 | > 10000
21 | CCOc1ccc(-c2ccc3nnc(-c4ccccc4OC)n3c2)cc1C [Example 16, 6-(4-Ethoxy-3-methylphenyl)-3-(2-methoxyphenyl)-[1,2,4]triazolo[4,3-a]pyridine] | 152 | 160 | 33 | 107
22 | COc1ccccc1-c1nnc2ccc(-c3ccc(C)c(N)c3)cn12 [Example 44, 6-(3-Amino-4-methylphenyl)-3-(2-methoxyphenyl)-[1,2,4]triazolo[4,3-a]pyridine] | 48 | 54 | 20 | 29
23 | COc1ccc(-c2ccc3nnc(-c4cccnc4Cl)n3c2)cc1 [Example 85, 3-(2-Chloropyridin-3-yl)-6-(4-methoxyphenyl)-[1,2,4]triazolo[4,3-a]pyridine] | 4340 | > 10000 | 1890 | 3870
24 | COc1ccccc1-c1nnc2ccc(-c3ccc(C)c(C)c3)cn12 [Example 32, 6-(3,4-Dimethylphenyl)-3-(2-methoxyphenyl)-[1,2,4]triazolo[4,3-a]pyridine] | 148 | 157 | 39 | 83
